The source of these data is patent US6638973B2, “Taxane formulations” (FSU Research Foundation, Inc., priority 2000, dated 2003).

The first experiment has as its system HCT116 cells. Briefly: In vitro cytotoxicity measured by the cell colony formation assay. The class given is cell-based. As to conditions: HCT116 colony formation; 72 h drug incubation, colonies counted after 7 days; Example 5, C-7 ester/C-10 hydroxy taxanes; read-out: IN VITRO ID 50 (nm) HCT116. How it is done: (§1) Four hundred cells (HCT116) were plated in 60 mm Petri dishes containing 2.7 mL of medium (modified McCoy's 5a medium containing 10% fetal bovine serum and 100 units/mL penicillin and 100 µg/mL streptomycin). The cells were incubated in a CO2 incubator at 37° C. for 5 h for attachment to the bottom of Petri dishes. The compounds identified in Example 2 were made up fresh in medium at ten times the final concentration, and then 0.3 mL of this stock solution was added to the 2.7 mL of medium in the dish. The cells were then incubated with drugs for 72 h at 37° C. At the end of incubation the drug-containing media were decanted, the dishes were rinsed with 4 mL of Hank's Balance Salt Solution (HBSS), 5 mL of fresh medium was added, and the dishes were returned to the incubator for colony formation. The cell colonies were counted using a colony counter after incubation for 7 days.
as §1, with “Example 7” for “Example 2”
as §1, with “Example 22” for “Example 2”
as §1, with “Example 27” for “Example 2”
Four hundred cells (HCT116) were plated in 60 mm Petri dishes containing 2.7 mL of medium (modified McCoy's 5a medium containing 10% fetal bovine serum and 100 units/mL penicillin and 100 µg/mL streptomycin). The cells were incubated in a CO2 incubator at 37° C. for 5 h for attachment to the bottom of Petri dishes. […]
Take `CCC(=O)O[C@H]1C[C@H]2OC[C@@]2(OC(C)=O)C2[C@H](OC(=O)c3ccccc3)[C@]3(O)C[C@H](OC(=O)[C@H](O)[C@H](C=C(C)C)NC(=O)OC(C)(C)C)C(C)=C([C@@H](O)C(=O)[C@@]21C)C3(C)C` (stereo partly shown) [Compound 1351]: the IC50 was under 1 nM.

The same experiment, now with this note: HCT116 colony formation; 72 h drug incubation, colonies counted after 7 days; Example 10, C-10 ester/C-7 hydroxy taxanes; read-out: IN VITRO ID 50 (nm) HCT116.
With `CCC(=O)O[C@H]1C(=O)[C@@]2(C)C([C@H](OC(=O)c3ccccc3)[C@]3(O)C[C@H](OC(=O)[C@H](O)[C@@H](NC(=O)c4ccccc4)c4ccccc4)C(C)=C1C3(C)C)[C@]1(OC(C)=O)CO[C@@H]1C[C@@H]2O` (stereo partly shown) [Compound 0748], the IC50 is under 10 nM.

On to `CC(=O)O[C@@]12CO[C@@H]1C[C@H](O)[C@@]1(C)C(=O)[C@H](OC(=O)C3CC3)C3=C(C)[C@@H](OC(=O)[C@H](O)[C@H](C=C(C)C)NC(=O)OC(C)(C)C)C[C@@](O)([C@@H](OC(=O)c4ccccc4)C12)C3(C)C` (stereo partly shown) [Compound 0838], for which the IC50 was under 1 nM.

Turning to `CC(=O)O[C@@]12CO[C@@H]1C[C@H](O)[C@@]1(C)C(=O)[C@H](OC(=O)C3CC3)C3=C(C)[C@@H](OC(=O)[C@H](O)[C@@H](NC(=O)OC(C)(C)C)c4ccco4)C[C@@](O)([C@@H](OC(=O)c4ccccc4)C12)C3(C)C` (stereo partly shown) [Compound 0843], the IC50 was under 1 nM.

In the case of `CC(=O)O[C@@]12CO[C@@H]1C[C@H](O)[C@@]1(C)C(=O)[C@H](OC(=O)C3CC3)C3=C(C)[C@@H](OC(=O)[C@H](O)[C@@H](NC(=O)OC(C)(C)C)c4cccs4)C[C@@](O)([C@@H](OC(=O)c4ccccc4)C12)C3(C)C` (stereo partly shown) [Compound 0854], the IC50 is under 1 nM.

Regarding `CC(=O)O[C@@]12CO[C@@H]1C[C@H](O)[C@@]1(C)C(=O)[C@H](OC(=O)C3CC3)C3=C(C)[C@@H](OC(=O)[C@H](O)[C@@H](NC(=O)OC(C)(C)C)C4CC4)C[C@@](O)([C@@H](OC(=O)c4ccccc4)C12)C3(C)C` (stereo partly shown) [Compound 0860], the IC50 is under 1 nM.

As to `CC(=O)O[C@@]12CO[C@@H]1C[C@H](O)[C@@]1(C)C(=O)[C@H](OC(=O)C3CC3)C3=C(C)[C@@H](OC(=O)[C@H](O)[C@@H](NC(=O)OC(C)(C)C)c4ccc([N+](=O)[O-])cc4)C[C@@](O)([C@@H](OC(=O)c4ccccc4)C12)C3(C)C` (stereo partly shown) [Compound 0879], the IC50 is under 1 nM.

`CC(=O)O[C@@]12CO[C@@H]1C[C@H](O)[C@@]1(C)C(=O)[C@H](OC(=O)C3CC3)C3=C(C)[C@@H](OC(=O)[C@H](O)[C@@H](NC(=O)OC(C)(C)C)c4ccccc4)C[C@@](O)([C@@H](OC(=O)c4ccccc4)C12)C3(C)C` (stereo partly shown) [Compound 0882]: the IC50 is under 1 nM.

For `CC(=O)O[C@@]12CO[C@@H]1C[C@H](O)[C@@]1(C)C(=O)[C@H](OC(=O)C3CC3)C3=C(C)[C@@H](OC(=O)[C@H](O)[C@H](C=C(C)C)NC(=O)c4ccccc4)C[C@@](O)([C@@H](OC(=O)c4ccccc4)C12)C3(C)C` (stereo partly shown) [Compound 0890], the IC50 was under 1 nM.

As to `CC(=O)O[C@@]12CO[C@@H]1C[C@H](O)[C@@]1(C)C(=O)[C@H](OC(=O)C3CC3)C3=C(C)[C@@H](OC(=O)[C@H](O)[C@@H](NC(=O)c4ccccc4)c4ccco4)C[C@@](O)([C@@H](OC(=O)c4ccccc4)C12)C3(C)C` (stereo partly shown) [Compound 0908], the IC50 is under 1 nM.

For `CC(=O)O[C@@]12CO[C@@H]1C[C@H](O)[C@@]1(C)C(=O)[C@H](OC(=O)C3CC3)C3=C(C)[C@@H](OC(=O)[C@H](O)[C@@H](NC(=O)c4ccccc4)c4cccs4)C[C@@](O)([C@@H](OC(=O)c4ccccc4)C12)C3(C)C` (stereo partly shown) [Compound 0919], the IC50 is under 1 nM.

Consider `CC(=O)O[C@@]12CO[C@@H]1C[C@H](O)[C@@]1(C)C(=O)[C@H](OC(=O)C3CC3)C3=C(C)[C@@H](OC(=O)[C@H](O)[C@@H](NC(=O)c4ccccc4)C4CC4)C[C@@](O)([C@@H](OC(=O)c4ccccc4)C12)C3(C)C` (stereo partly shown) [Compound 0923], for which the IC50 is under 1 nM.

As to `CC(=O)O[C@@]12CO[C@@H]1C[C@H](O)[C@@]1(C)C(=O)[C@H](OC(=O)C3CC3)C3=C(C)[C@@H](OC(=O)[C@H](O)[C@@H](NC(=O)c4ccccc4)c4ccccc4)C[C@@](O)([C@@H](OC(=O)c4ccccc4)C12)C3(C)C` (stereo partly shown) [Compound 0937], the IC50 is under 10 nM.

Turning to `CCCC(=O)O[C@H]1C(=O)[C@@]2(C)C([C@H](OC(=O)c3ccccc3)[C@]3(O)C[C@H](OC(=O)[C@H](O)[C@H](C=C(C)C)NC(=O)OC(C)(C)C)C(C)=C1C3(C)C)[C@]1(OC(C)=O)CO[C@@H]1C[C@@H]2O` (stereo partly shown) [Compound 0947], the IC50 is under 1 nM.

`CCCC(=O)O[C@H]1C(=O)[C@@]2(C)C([C@H](OC(=O)c3ccccc3)[C@]3(O)C[C@H](OC(=O)[C@H](O)[C@@H](NC(=O)OC(C)(C)C)c4ccccn4)C(C)=C1C3(C)C)[C@]1(OC(C)=O)CO[C@@H]1C[C@@H]2O` (stereo partly shown) [Compound 0951]: the IC50 is under 1 nM.

In the case of `CCCC(=O)O[C@H]1C(=O)[C@@]2(C)C([C@H](OC(=O)c3ccccc3)[C@]3(O)C[C@H](OC(=O)[C@H](O)[C@@H](NC(=O)OC(C)(C)C)c4cccnc4)C(C)=C1C3(C)C)[C@]1(OC(C)=O)CO[C@@H]1C[C@@H]2O` (stereo partly shown) [Compound 0966], the IC50 is under 10 nM.

For the compound `CCCC(=O)O[C@H]1C(=O)[C@@]2(C)C([C@H](OC(=O)c3ccccc3)[C@]3(O)C[C@H](OC(=O)[C@H](O)[C@@H](NC(=O)OC(C)(C)C)c4ccncc4)C(C)=C1C3(C)C)[C@]1(OC(C)=O)CO[C@@H]1C[C@@H]2O` (stereo partly shown) [Compound 0978], the IC50 was under 1 nM.

Take `CCCC(=O)O[C@H]1C(=O)[C@@]2(C)C([C@H](OC(=O)c3ccccc3)[C@]3(O)C[C@H](OC(=O)[C@H](O)[C@@H](NC(=O)OC(C)(C)C)c4ccco4)C(C)=C1C3(C)C)[C@]1(OC(C)=O)CO[C@@H]1C[C@@H]2O` (stereo partly shown) [Compound 0983]: the IC50 was under 1 nM.

Turning to `CCCC(=O)O[C@H]1C(=O)[C@@]2(C)C([C@H](OC(=O)c3ccccc3)[C@]3(O)C[C@H](OC(=O)[C@H](O)[C@@H](NC(=O)OC(C)(C)C)c4ccoc4)C(C)=C1C3(C)C)[C@]1(OC(C)=O)CO[C@@H]1C[C@@H]2O` (stereo partly shown) [Compound 0999], the IC50 is under 1 nM.

`CCCC(=O)O[C@H]1C(=O)[C@@]2(C)C([C@H](OC(=O)c3ccccc3)[C@]3(O)C[C@H](OC(=O)[C@H](O)[C@@H](NC(=O)OC(C)(C)C)c4cccs4)C(C)=C1C3(C)C)[C@]1(OC(C)=O)CO[C@@H]1C[C@@H]2O` (stereo partly shown) [Compound 1003]: the IC50 is under 1 nM.

Consider `CCCC(=O)O[C@H]1C(=O)[C@@]2(C)C([C@H](OC(=O)c3ccccc3)[C@]3(O)C[C@H](OC(=O)[C@H](O)[C@@H](NC(=O)OC(C)(C)C)c4ccsc4)C(C)=C1C3(C)C)[C@]1(OC(C)=O)CO[C@@H]1C[C@@H]2O` (stereo partly shown) [Compound 1011], for which the IC50 is under 1 nM.

With `CCCC(=O)OC1C(=O)C2(C)C(O)CC3OCC3(OC(C)=O)C2C(OC(=O)c2ccccc2)C2(O)CC(OC(=O)C(O)C(NC(=O)OC(C)(C)C)C3CC3)C(C)=C1C2(C)C` (stereo not shown) [Compound 1020], the IC50 is under 1 nM.

Take `CCCC(=O)OC1C(=O)C2(C)C(O)CC3OCC3(OC(C)=O)C2C(OC(=O)c2ccccc2)C2(O)CC(OC(=O)C(O)C(NC(=O)OC(C)(C)C)C(C)C)C(C)=C1C2(C)C` (stereo not shown) [Compound 1031]: the IC50 is under 10 nM.

As to `CCCC(=O)OC1C(=O)C2(C)C(O)CC3OCC3(OC(C)=O)C2C(OC(=O)c2ccccc2)C2(O)CC(OC(=O)C(O)C(NC(=O)OC(C)(C)C)C3CCC3)C(C)=C1C2(C)C` (stereo not shown) [Compound 1044], the IC50 is under 1 nM.

As for `CCCC(=O)OC1C(=O)C2(C)C(O)CC3OCC3(OC(C)=O)C2C(OC(=O)c2ccccc2)C2(O)CC(OC(=O)C(O)C(NC(=O)OC(C)(C)C)c3ccccc3)C(C)=C1C2(C)C` (stereo not shown) [Compound 1060], the IC50 is under 1 nM.
